The values that follow come from US8883173B2 (priority 2007, dated 2014).

“Also recorded” adds a separate entry of the source. Square brackets hold non-standard residues; d marks the D form. Ends that are not written are not given here. NMeV = CN[C@H](C(=O)O)C(C)C

Assay [1] concerns sera from Map infected animals (anti-Map antibodies). It counts as binding, bovines and goats.
In assay [2] the test system is sera from M. bovis infected bovine. The class given is binding. To be noted: read at 414 nm.
For assay [3], the system named is sera from Mav- or Mai-infected human patients. The class given is binding.
Assay [4] relates to sera from M. avium subsp. avium-experimentally infected mouse. Nature of the assay: ELISA with sera from Mav experimentally infected mouse. The class given is binding. To be noted: FIG. 4B. (In general: In an ELISA, binding on a coated surface is turned into a signal by an enzyme label.)
In assay [5] the test system is IgA, IgM, IgG1 or IgG2 antibodies in sera of Map infected animals. The class given is binding, bovines.

`CCCCCCCCCCCCCCCCCCCC(=O)O` [lipid moiety, eicosanoic acid, reference compound]: the “recognition by sera of Map-infected animals, compared with L5P” value (shortened to “recognition by sera … compared with L5P”) in assay [1] is recorded as “poorly recognized”.

Consider “AcNH-DPhe-NMeVal-Ile-Phe-Ala (Ac-[dF][NMeV]IFA) [compound 10]”, for which the “specific reaction with Map specific anti serum” value (shortened to “specific reaction”) in assay [1] was “react specifically”.

In the case of “AcNH-DPhe-NMeVal-Ile-Phe-Ala-OMe (Ac-[dF][NMeV]IFA-OMe; SMILES CC[C@H](C)[C@H](NC(=O)[C@H](C(C)C)N(C)C(=O)[C@@H](Cc1ccccc1)NC(C)=O)C(=O)N[C@@H](Cc1ccccc1)C(=O)N[C@@H](C)C(=O)OC) [Ac5P]”, the “recognition by sera … compared with L5P” value in assay [1] is “recognized as efficiently as the L5P; also recorded: In some cases, the pentapeptide was even better recognized than the whole L5P”.

Take “AcNH-DPhe-Val-Ile-Phe-Ala-OMe (Ac-[dF]VIFA-OMe; SMILES CC[C@H](C)[C@H](NC(=O)[C@@H](NC(=O)[C@@H](Cc1ccccc1)NC(C)=O)C(C)C)C(=O)N[C@@H](Cc1ccccc1)C(=O)N[C@@H](C)C(=O)OC) [compound 8]”: in assay [1], the “specific reaction” value was “react specifically”.

Take “DPhe-NMeVal-Ile-Phe-Ala-OMe ([dF][NMeV]IFA-OMe) [compound 4]”: in assay [1], the “antigenic response (ranking among analogues)” value is listed as “best antigenic response”; the “recognition by sera … compared with L5P” value is listed as “recognized at least as efficiently”; the “sensitivity for detection of Map-specific antibodies compared to L5P (1)” value is given as “higher sensitivity”; the “specific reaction” value is “react specifically”.

For “LipidC20-DPhe-NMeVal-Ile-Phe-Ala [compound 9]”, in assay [1], the “specific reaction” value is “react specifically”.

As to “LipidC20-DPhe-NMeVal-Ile-Phe-Ala-OMe [L5P]”, in assay [1], the “OD in ELISA” value was “above 1,5” and the “specificity compared with PPD” value was “by far more specific than the PPD”. Also, in assay [2], the “O.D. in ELISA” value is on record as “below 0.2”. Besides, the “O.D. in ELISA” value in assay [3] is “below 0.2”. In assay [4], the reactivity with sera result was “none was reacting”. Besides, in assay [5], the “anti-L5P IgA in sera” value was “no IgA was detected”, the “anti-L5P IgG1 in sera” value was “present”, the “anti-L5P IgG2 in sera” value was “present” and the “anti-L5P IgM in sera” value is “present”.
